The values that follow come from ChEMBL document CHEMBL6182854, “Design, synthesis and biological evaluation of WEE1 degraders via HSP90-mediated targeting chimeras for target therapy of acute myeloid leukemia” (Eur J Med Chem, 2025).

The subject of series [1] is MV4-11. As to the kind of experiment: Antiproliferative activity against human MV4-11 cells assessed as cell viability incubated for 72 hrs by CCK-8 assay. The conditions noted are these: MV4-11, 72 h. The format is functional, cell-based. Background: Tetrazolium assays rely on reduction of a dye to a coloured formazan, in cell work by metabolically active cells.
The test system of series [2] is MV4-11. As to the kind of experiment: HEMTAC activity against HSP90/WEE1 in human MV4-11 cells assessed as induction of WEE1 degradation at 10 uM incubated for 12 hrs by Western blotting analysis. The format is cell-based. On the technique in general: In western blotting, separated proteins are transferred to a membrane and probed.
The subject of series [3] is Primary acute myeloid leukemic cell. The experiment in a line: Antitumor activity against patient derived human Primary acute myeloid leukemic cell xenografted in female NOD/SCID mouse assessed as reduction in splenomegaly at 3 mg/kg administered via tail vein and measured after 4 weeks. The format is functional, organism-based. (Xenograft models place foreign cells or tissue in a host animal.)

Series [4] relates to MV4-11. The experiment in a line: HEMTAC activity against HSP90/AKT in human MV4-11 cells assessed as induction of AKT degradation at 0.1 uM incubated for 12 hrs by Western blotting analysis. The format is cell-based.
The subject of series [5] is Primary acute myeloid leukemic cell. As to the kind of experiment: Antitumor activity against patient derived human Primary acute myeloid leukemic cell xenografted in female NOD/SCID mouse assessed as decrease in huCD45+ cells in spleen at 3 mg/kg administered via tail vein and measured after 4 weeks by flow cytometric analysis. The format is functional, organism-based.

Series [6] can be described thus: Toxicity in male BALB/C mouse assessed as myelosuppression by measuring leukocytes level at 10 mg/kg administered via tail vein and measured on day 3. The format is organism-based. The conditions noted are these: in vivo, iv, 72 h, time 3 day.
A short description of series [7]: Toxicity in female NOD/SCID mouse xenografted with patient derived human Primary acute myeloid leukemic cell assessed as spleen damage at 3 mg/kg administered via tail vein by H and E staining based optical microscopic analysis. The format is organism-based. The conditions noted are these: in vivo, iv.
Series [8] deals with MV4-11. As to the kind of experiment: Induction of cell cycle arrest in human MV4-11 cells assessed as accumulation of cells at G2/M phase incubated for 72 hrs by PI staining based flow cytometry. The format is functional. The settings on record: dose 30.0 µM.
A short description of series [9]: Toxicity in male BALB/C mouse assessed as myelosuppression by measuring neutrophil level at 10 mg/kg administered via tail vein and measured on day 3. The format is organism-based. The settings on record: in vivo, iv, 72 h, time 3 day.
Series [10] has as its target Cyclin-dependent kinase 1 (Homo sapiens) (UniProt P06493). The experiment in a line: Inhibition of CDK1 phosphorylation in human MV4-11 cells. The format is cell-based.
Series [11] can be described thus: Toxicity in female NOD/SCID mouse xenografted with patient derived human Primary acute myeloid leukemic cell assessed as kidney damage at 10 mg/kg administered via tail vein by H and E staining based optical microscopic analysis. The format is organism-based. The settings on record: in vivo, iv.
For series [12], the target named is Heat shock protein HSP 90-alpha (Homo sapiens, UniProt P07900). The experiment in a line: Inhibition of N-terminal HSP90alpha (unknown origin) ATPase activity incubated for 3 hrs by fluorescence polarization assay.
Series [13] deals with MV4-11. The experiment in a line: Induction of cell cycle arrest in human MV4-11 cells assessed as accumulation of cells at G2/M phase at 30 nM incubated for 72 hrs by PI staining based flow cytometry. The format is functional.
The nature of series [14]: Cytotoxicity against human PBMC cells assessed as reduction in cell viability up to 1000 nM incubated for 72 hrs by CCK-8 assay. The format is toxicity, cell-based. The settings on record: 1 µM.
Series [15] is described as follows: Toxicity in female NOD/SCID mouse xenografted with patient derived human Primary acute myeloid leukemic cell assessed as heart damage at 3 mg/kg administered via tail vein by H and E staining based optical microscopic analysis. The format is organism-based. The settings on record: in vivo, iv.
Series [16] in a line: Toxicity in female NOD/SCID mouse xenografted with patient derived human Primary acute myeloid leukemic cell assessed as increase in body weight at 3 mg/kg administered via tail vein and measured after 4 weeks. The format is organism-based. The conditions noted are these: in vivo, iv, 672 h.
Series [17] in a line: Toxicity in female NOD/SCID mouse xenografted with patient derived human Primary acute myeloid leukemic cell assessed as liver damage at 3 mg/kg administered via tail vein by H and E staining based optical microscopic analysis. The format is organism-based. The conditions noted are these: in vivo, iv.
The nature of series [18]: Toxicity in female NOD/SCID mouse xenografted with patient derived human Primary acute myeloid leukemic cell assessed as lung damage at 3 mg/kg administered via tail vein by H and E staining based optical microscopic analysis. The settings on record: in vivo, iv. The format is organism-based.
Series [19] can be described thus: Toxicity in male BALB/C mouse assessed as myelosuppression by measuring platelet level at 10 mg/kg administered via tail vein and measured on day 3. The format is organism-based. The settings on record: in vivo, iv, 72 h, time 3 day.
In series [20] the test system is MV4-11. The experiment in a line: Upregulation of WEE1 mRNA expression in human MV4-11 cells incubated for 12 hrs by qRT-PCR analysis. The format is functional, cell-based. The conditions noted are these: dose 1-10 µM.
Series [21] has as its system MV4-11. The experiment in a line: HEMTAC activity at HSP90/WEE1 in human MV4-11 cells assessed as induction of WEE1 degradation at 0.1 uM incubated for 12 hrs by Western blotting analysis. The format is cell-based.
The test system of series [22] is Primary acute myeloid leukemic cell. As to the kind of experiment: Antitumor activity against patient derived human Primary acute myeloid leukemic cell xenografted in female NOD/SCID mouse assessed as decrease in huCD45+ cells in bone marrow at 3 mg/kg administered via tail vein in presence of AZD1775 and measured after 4 weeks by flow cytometric analysis. The format is functional, organism-based.

For series [23] the test system is unchanged. As to the kind of experiment: Antitumor activity against patient derived human Primary acute myeloid leukemic cell xenografted in female NOD/SCID mouse assessed as decrease in huCD45+ cells in bone marrow at 5 mg/kg administered via tail vein and measured after 4 weeks in presence of AZD1775 by flow cytometric analysis. The format is functional, organism-based.

The test system is the same in series [24]. As to the kind of experiment: Antitumor activity against patient derived human Primary acute myeloid leukemic cell xenografted in female NOD/SCID mouse assessed as decrease in huCD45+ cells in bone marrow at 5 mg/kg administered via tail vein and measured after 4 weeks by flow cytometric analysis. The format is functional, organism-based.
The nature of series [25]: Antitumor activity against patient derived human Primary acute myeloid leukemic cell xenografted in female NOD/SCID mouse assessed as decrease in huCD45+ cells in bone marrow at 10 mg/kg administered via tail vein and measured after 4 weeks by flow cytometric analysis relative to control. Details: scale not given: the % may be the effect or the level left. The format is functional.

Series [26] can be described thus: Toxicity in female NOD/SCID mouse xenografted with patient derived human Primary acute myeloid leukemic cell assessed as liver damage at 10 mg/kg administered via tail vein by H and E staining based optical microscopic analysis. The settings on record: in vivo, iv. The format is organism-based.
A short description of series [27]: Toxicity in female NOD/SCID mouse xenografted with patient derived human Primary acute myeloid leukemic cell assessed as lung damage at 10 mg/kg administered via tail vein by H and E staining based optical microscopic analysis. The format is organism-based. The conditions noted are these: in vivo, iv.
Series [28] in a line: Toxicity in female NOD/SCID mouse xenografted with patient derived human Primary acute myeloid leukemic cell assessed as increase in body weight at 10 mg/kg administered via tail vein and measured after 4 weeks. The format is organism-based. The settings on record: in vivo, iv, 672 h.
Series [29] concerns Primary acute myeloid leukemic cell. The experiment in a line: Antitumor activity against patient derived human Primary acute myeloid leukemic cell xenografted in female NOD/SCID mouse assessed as reduction in splenomegaly at 10 mg/kg administered via tail vein and measured after 4 weeks. The format is functional, organism-based.
The nature of series [30]: Antiproliferative activity against patient derived human Primary acute myeloid leukemic cell assessed as inhibition of cell growth incubated for 72 hrs by CCK-8 assay. The format is functional, cell-based.
In series [31] the test system is Primary acute myeloid leukemic cell. The experiment in a line: Antitumor activity against patient derived human Primary acute myeloid leukemic cell xenografted in female NOD/SCID mouse assessed as decrease in huCD45+ cells in spleen at 10 mg/kg administered via tail vein and measured after 4 weeks by flow cytometric analysis. The format is functional, organism-based.

The nature of series [32]: Toxicity in female NOD/SCID mouse xenografted with patient derived human Primary acute myeloid leukemic cell assessed as heart damage at 10 mg/kg administered via tail vein by H and E staining based optical microscopic analysis. The format is organism-based. The settings on record: in vivo, iv.
Series [33] in a line: Toxicity in female NOD/SCID mouse xenografted with patient derived human Primary acute myeloid leukemic cell assessed as spleen damage at 10 mg/kg administered via tail vein by H and E staining based optical microscopic analysis. The format is organism-based. The conditions noted are these: in vivo, iv.

Calls of active or inactive are those of the source. The calls are words filed in the database; no cut-off is given here.

Chain of Cyclin-dependent kinase 1 (Homo sapiens) (P06493 whole entry, looked up): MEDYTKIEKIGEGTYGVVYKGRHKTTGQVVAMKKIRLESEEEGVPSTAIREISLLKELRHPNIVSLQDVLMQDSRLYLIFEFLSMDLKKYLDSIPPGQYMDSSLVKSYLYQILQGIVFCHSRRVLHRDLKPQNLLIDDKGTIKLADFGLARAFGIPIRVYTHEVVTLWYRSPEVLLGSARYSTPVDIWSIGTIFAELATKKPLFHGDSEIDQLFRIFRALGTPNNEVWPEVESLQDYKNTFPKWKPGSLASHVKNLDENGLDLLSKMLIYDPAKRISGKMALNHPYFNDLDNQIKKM

On to `C=CCn1c(=O)c2cnc(Nc3ccc(N4CCN(CCCCCNC(=O)CCC(=O)Nc5ccc6c(c5)CCN6C(=O)c5cc(C(C)C)c(O)cc5O)CC4)cc3)nc2n1-c1cccc(C(C)(C)O)n1`, for which the IC50 in series [1] came out at 38.4 nM. Also, in series [2], the outcome was Active.
On to `C=CCn1c(=O)c2cnc(Nc3ccc(N4CCN(CCCCNC(=O)CN5CCN(Cc6ccc(-n7c(C(=O)NCC)nnc7-c7cc(C(C)C)c(O)cc7O)cc6)CC5)CC4)cc3)nc2n1-c1cccc(C(C)(C)O)n1`, for which the result in series [3], in series [5], in [13], in [2], in series [20] and in [21] was Active. Besides, the Activity entry in series [4] is “Minimal_effect”; in series [6], “Non-toxic”; in series [7], “Non-toxic”; in series [8] it was “Dose-dependent-effect”; in series [9], “Non-toxic”; in series [11], “Non-toxic”. Also, the Activity entry in series [14], in [15], in series [16], in series [17], in series [18] and in series [19] was “Non-toxic” throughout. For the same compound, the inhibition result in series [10] is “Active”. Further, in series [12], the concentration for half-maximal inhibition (IC50) amounted to 16.8 nM.
Regarding `CC(C)c1cc(-c2n[nH]c(=O)n2-c2ccc3c(ccn3C)c2)c(O)cc1O` [GANETESPIB], the outcome in series [8] was Active. In addition, the result in series [22], in [23] and in [24] was inactive. The IC50 in [1] amounted to 1.53 nM.
Regarding `C=CCn1c(=O)c2cnc(Nc3ccc(N4CCN(CCCNC(=O)c5noc(-c6cc(C(C)C)c(O)cc6O)c5-c5ccc(CN6CCOCC6)cc5)CC4)cc3)nc2n1-c1cccc(C(C)(C)O)n1`, the Activity result in series [4] was “Minimal_effect”; in series [25] it was >70%; in [26], “Non-toxic”; in series [27], “Non-toxic”; in series [8] it was “Dose-dependent-effect”; in series [28], “Non-toxic”. The Activity result in series [14], in series [32], in [18], in [19] and in [33] was “Non-toxic” each time. Further, the inhibition result in [10] is “Active”. Besides, the result in [29], in series [13], in series [31], in series [2], in series [20] and in series [21] was Active. For the same compound, the concentration for half-maximal inhibition (IC50) in series [12] was determined as 13.9 nM; in series [1] it was 8.03 nM; in series [30], 40.5 nM.
On to `C=CCn1c(=O)c2cnc(Nc3ccc(N4CCN(CCNC(=O)CCC(=O)Nc5ccc6c(c5)CCN6C(=O)c5cc(C(C)C)c(O)cc5O)CC4)cc3)nc2n1-c1cccc(C(C)(C)O)n1`, for which the 50% inhibitory concentration (IC50) in [1] is 13.1 nM. Moreover, the result in [2] was Active.
Turning to `CCNC(=O)c1noc(-c2cc(C(C)C)c(O)cc2O)c1-c1ccc(CN2CCOCC2)cc1` [LUMINESPIB], the outcome in series [8] was Active. For the same compound, in [1], the concentration for half-maximal inhibition (IC50) came to 1.98 nM.
As for `C=CCn1c(=O)c2cnc(Nc3ccc(N4CCN(CCCCNC(=O)CCC(=O)Nc5ccc6c(c5)CCN6C(=O)c5cc(C(C)C)c(O)cc5O)CC4)cc3)nc2n1-c1cccc(C(C)(C)O)n1`, the IC50 in [1] came out at 153 nM. In addition, the result in [2] was Active.

As a reminder, the IC50 is the point on the concentration scale where inhibition reaches its midpoint.
